# Experimental data reported in the supplement of paper PMC11451515.
# System: SEM cells
# Assay: cell viability relative to DMSO control; higher = less cytotoxic
# Conditions: 48 h
# Outline: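 Viability values are per-plate percentages of DMSO wells, with background from cell-free wells. Library compounds in DMSO were pin-dosed, in an 11-point threefold series from 47 μM to 0.79 nM, onto NOMO1 or SEM (500 cells/well) or P12-Ichikawa (1000 cells/well) leukemia cells in 1536-well plates (5 μl). Those cells had been adapted for at least four passages in each medium, and CellTiter-Glo One luminescence was read after 48 h at 37°C.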
# [1] = HPLM + 10% dialyzed FBS, 0.000781 µM
# [2] = HPLM + 10% dialyzed FBS, 0.00234 µM
# [3] = HPLM + 10% dialyzed FBS, 0.00702 µM
# [4] = HPLM + 10% dialyzed FBS, 0.0211 µM
# [5] = HPLM + 10% dialyzed FBS, 0.0632 µM
# [6] = HPLM + 10% dialyzed FBS, 0.19 µM
# [7] = HPLM + 10% dialyzed FBS, 0.569 µM
# [8] = HPLM + 10% dialyzed FBS, 1.71 µM
# [9] = HPLM + 10% dialyzed FBS, 5.12 µM
# [10] = HPLM + 10% dialyzed FBS, 15.4 µM
# [11] = HPLM + 10% dialyzed FBS, 46.1 µM
# [12] = RPMI 5 mM glucose + 10% dialyzed FBS, 0.000781 µM
# [13] = RPMI 5 mM glucose + 10% dialyzed FBS, 0.00234 µM
# [14] = RPMI 5 mM glucose + 10% dialyzed FBS, 0.00702 µM
# [15] = RPMI 5 mM glucose + 10% dialyzed FBS, 0.0211 µM
# [16] = RPMI 5 mM glucose + 10% dialyzed FBS, 0.0632 µM
# [17] = RPMI 5 mM glucose + 10% dialyzed FBS, 0.19 µM
# [18] = RPMI 5 mM glucose + 10% dialyzed FBS, 0.569 µM
# [19] = RPMI 5 mM glucose + 10% dialyzed FBS, 1.71 µM
# [20] = RPMI 5 mM glucose + 10% dialyzed FBS, 5.12 µM
# [21] = RPMI 5 mM glucose + 10% dialyzed FBS, 15.4 µM
# [22] = RPMI 5 mM glucose + 10% dialyzed FBS, 46.1 µM
Structure (SMILES),cell viability [1],cell viability [2],cell viability [3],cell viability [4],cell viability [5],cell viability [6],cell viability [7],cell viability [8],cell viability [9],cell viability [10],cell viability [11],cell viability [12],cell viability [13],cell viability [14],cell viability [15],cell viability [16],cell viability [17],cell viability [18],cell viability [19],cell viability [20],cell viability [21],cell viability [22],"cell viability (RPMI 5 mM glucose + 10% FBS, 0.000781 µM)","cell viability (RPMI 5 mM glucose + 10% FBS, 0.00234 µM)","cell viability (RPMI 5 mM glucose + 10% FBS, 0.00702 µM)","cell viability (RPMI 5 mM glucose + 10% FBS, 0.0211 µM)","cell viability (RPMI 5 mM glucose + 10% FBS, 0.0632 µM)","cell viability (RPMI 5 mM glucose + 10% FBS, 0.19 µM)","cell viability (RPMI 5 mM glucose + 10% FBS, 0.569 µM)","cell viability (RPMI 5 mM glucose + 10% FBS, 1.71 µM)","cell viability (RPMI 5 mM glucose + 10% FBS, 5.12 µM)","cell viability (RPMI 5 mM glucose + 10% FBS, 15.4 µM)","cell viability (RPMI 5 mM glucose + 10% FBS, 46.1 µM)"
Cc1cccc(-c2[nH]c(C(C)(C)C)nc2-c2ccc3c(c2)OCO3)n1,103%,98.7%,114%,105%,104%,120%,113%,121%,109%,10.8%,7.86%,92.1%,96.8%,100%,93%,120%,99.7%,107%,121%,111%,10.4%,4.24%,,,,,,,,,,,
OC[C@H]1OC(OC2=CC3=C(C(=C2)O)C(=O)\C(=C/O3)C4=CC=C(O)C=C4)[C@H](O)[C@@H](O)[C@@H]1O (stereo not given in full),93.7%,92.9%,92%,98.1%,93%,79.9%,69.7%,93.4%,81.6%,78.6%,65.3%,86.3%,89.1%,114%,94.7%,106%,88.3%,89.8%,96.6%,90.3%,90.1%,95.8%,97.9%,86.8%,111%,102%,117%,89.6%,89%,98%,86.4%,92.4%,94.1%
